Test results published in PMC6522912, “Evaluation of the published kinase inhibitor set to identify multiple inhibitors of bacterial ATP-dependent mur ligases” (Journal of Enzyme Inhibition and Medicinal Chemistry, 2019).

Key:
E. coli MurD = E. coli MurD (Escherichia coli, UniProt P14900); assay: biochemical; settings: for remaining activity at 100 µM: 0.25 h, Table S1, PKIS screening, read-out: RA [%] at 100 µM MurD
How it was run: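 Orthophosphate released by E. coli MurD quantified by malachite green (Biomol green) absorbance at 650 nm after 15 min at 37 °C. Residual activity relative to DMSO-only controls.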

E. coli MurF = E. coli MurF (Escherichia coli, UniProt P11880); assay: biochemical; settings: Table S1, PKIS screening; for remaining activity at 100 µM: 0.25 h, read-out: RA [%] at 100 µM MurF
E. coli MurC = E. coli MurC (Escherichia coli, UniProt P17952); assay: Malachite green inhibition assay, MurC; type: biochemical; settings: for remaining activity at 100 µM: 0.25 h, read-out: RA [%] at 100 µM MurC
Sequence of E. coli MurC (P17952 whole entry): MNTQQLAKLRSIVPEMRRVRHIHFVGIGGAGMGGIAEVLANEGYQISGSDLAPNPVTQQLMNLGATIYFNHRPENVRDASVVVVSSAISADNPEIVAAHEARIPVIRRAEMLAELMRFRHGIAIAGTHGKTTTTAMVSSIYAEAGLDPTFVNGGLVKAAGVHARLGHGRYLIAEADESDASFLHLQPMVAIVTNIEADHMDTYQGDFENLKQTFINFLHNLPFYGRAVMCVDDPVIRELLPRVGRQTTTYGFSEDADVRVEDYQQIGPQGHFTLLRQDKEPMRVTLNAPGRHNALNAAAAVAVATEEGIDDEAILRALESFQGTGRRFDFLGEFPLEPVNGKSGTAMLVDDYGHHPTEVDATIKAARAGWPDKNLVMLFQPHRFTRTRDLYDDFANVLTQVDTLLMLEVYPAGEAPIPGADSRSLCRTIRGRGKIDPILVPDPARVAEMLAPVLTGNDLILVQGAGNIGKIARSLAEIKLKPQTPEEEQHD

Sequence of E. coli MurD (P14900 whole entry): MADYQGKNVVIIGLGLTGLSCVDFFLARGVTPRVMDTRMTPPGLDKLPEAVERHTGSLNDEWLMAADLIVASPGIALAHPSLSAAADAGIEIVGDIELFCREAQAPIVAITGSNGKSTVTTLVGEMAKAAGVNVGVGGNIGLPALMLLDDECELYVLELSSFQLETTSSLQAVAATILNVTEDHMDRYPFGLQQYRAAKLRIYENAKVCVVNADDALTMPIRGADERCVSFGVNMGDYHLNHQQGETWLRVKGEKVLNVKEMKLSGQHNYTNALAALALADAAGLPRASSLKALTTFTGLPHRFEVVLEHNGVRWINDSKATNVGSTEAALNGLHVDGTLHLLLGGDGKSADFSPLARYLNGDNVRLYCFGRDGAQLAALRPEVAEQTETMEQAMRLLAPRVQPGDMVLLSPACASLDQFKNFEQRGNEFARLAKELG
Sequence of E. coli MurF (P11880 whole entry): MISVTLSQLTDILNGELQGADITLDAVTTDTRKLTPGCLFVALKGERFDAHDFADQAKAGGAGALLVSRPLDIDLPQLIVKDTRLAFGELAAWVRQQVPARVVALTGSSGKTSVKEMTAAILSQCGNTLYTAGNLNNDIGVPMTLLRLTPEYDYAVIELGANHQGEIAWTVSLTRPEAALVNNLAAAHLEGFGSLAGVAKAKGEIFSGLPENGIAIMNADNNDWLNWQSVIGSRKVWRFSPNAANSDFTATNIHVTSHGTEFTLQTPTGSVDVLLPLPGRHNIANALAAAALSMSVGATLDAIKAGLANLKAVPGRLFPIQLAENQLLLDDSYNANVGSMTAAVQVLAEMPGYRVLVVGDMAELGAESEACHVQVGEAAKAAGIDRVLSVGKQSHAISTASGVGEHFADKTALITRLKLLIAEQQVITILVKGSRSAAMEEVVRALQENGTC

Row | SMILES | remaining activity at 100 µM (E. coli MurD) [%] | remaining activity at 100 µM (E. coli MurF) [%] | remaining activity at 100 µM (E. coli MurC; Table S1, PKIS screening) [%] | IC50 (E. coli MurD; printed in the RA cell of Table S1, read-out: IC50 MurD) [µM] | IC50 (E. coli MurC; printed in the RA cell of Table S1, read-out: IC50 MurC) [µM] | RA [%] at 100 µM MurD (E. coli MurD) [%] | RA [%] at 100 µM MurF (E. coli MurF) [%] | RA [%] at 100 µM MurC (E. coli MurC; Table S1, PKIS screening) [%]
1 | [O-][S+]1CCN(Cc2ccc(-c3ccc4ncnc(Nc5ccc(OCc6ccccc6)c(Cl)c5)c4c3)o2)CC1 [GW583373A] | 59 | 60 | 62 | – | – | – | – | –
2 | COC(=O)Nc1nc2ccc(Oc3ccc(NC(=O)Nc4cccc(Cl)c4)cc3)cc2[nH]1 [GW589961A] | 81 | 83 | 77 | – | – | – | – | –
3 | COC(=O)Nc1nc2ccc(Sc3ccc(NC(=O)Nc4cc(C(F)(F)F)ccc4F)cc3)cc2[nH]1 [GW607049C] | 80 | 91 | 62 | – | – | – | – | –
4 | Cc1nnc(-c2ccc(C)c(-c3ccc(C(=O)Nc4cccc(C#N)c4)cc3)c2)o1 [GW607117X] | 100 | 90 | 72 | – | – | – | – | –
5 | COc1cc(Nc2nccc(Nc3ccc4c(C)n[nH]c4c3)n2)cc(OC)c1OC [GW612286X] | 94 | 100 | 86 | – | – | – | – | –
6 | O=S(=O)(CCOCc1ccc(-c2ccc3ncnc(Nc4ccc(OCc5cccc(F)c5)c(Cl)c4)c3c2)o1)c1ccccc1 [GW615311X] | 91 | 100 | 97 | – | – | – | – | –
7 | CS(=O)(=O)CCN(CC#N)Cc1ccc(-c2ccc3ncnc(Nc4ccc(OCc5cccc(F)c5)c(Cl)c4)c3c2)o1 [GW616030X] | 59 | 80 | 76 | – | – | – | – | –
8 | CCS(=O)(=O)c1ccc(OC)c(Nc2ncc(-c3cccc(C(C)=O)c3)o2)c1 [GW621431X] | 93 | 73 | 68 | – | – | – | – | –
9 | CCCN(CCS(C)(=O)=O)Cc1ccc(-c2ccc3ncnc(Nc4ccc(OCc5cccc(F)c5)c(Cl)c4)c3c2)o1 [GW621823A] | 42 | 96 | 36 | – | – | – | – | –
10 | CCS(=O)(=O)c1ccc(OC)c(Nc2ncc(-c3cccc(F)c3)o2)c1 [GW621970X] | 55 | 89 | 76 | – | – | – | – | –
11 | CCS(=O)(=O)c1ccc(OC)c(Nc2ncc(-c3ccccc3Cl)o2)c1 [GW622055X] | 65 | 80 | 74 | – | – | – | – | –
12 | COc1cc(Nc2ncc(-c3ccccc3)o2)cc(OC)c1OC [GW627512B] | 72 | 100 | 98 | – | – | – | – | –
13 | N#Cc1cccc(Nc2ncc(-c3ccccc3)o2)c1 [GW627834A] | 75 | 85 | 78 | – | – | – | – | –
14 | COc1cc(Nc2ncc(-c3ccccc3)o2)cc(OC)c1 [GW631581B] | 79 | 97 | 64 | – | – | – | – | –
15 | Cc1cccc(Nc2ncc(-c3ccccc3)o2)c1 [GW632046X] | 84 | 97 | 100 | – | – | – | – | –
16 | COc1ccc(COc2ccc(Cc3cnc(N)nc3N)cc2OC)cc1 [GW632580X] | 89 | 99 | 88 | – | – | – | – | –
17 | O=S(=O)(CCNCc1ccc(-c2ccc3ncnc(Nc4ccc(OCc5cccc(F)c5)c(Cl)c4)c3c2)o1)c1ccccc1 [GW633459A] | 80 | 84 | 100 | – | – | – | – | –
18 | COc1ccc(-c2coc3ncnc(N)c23)cc1 [GW642125X] | 83 | 85 | 100 | – | – | – | – | –
19 | COc1ccc(-c2cc3c(N)ncnc3o2)cc1 [GW642138X] | 93 | 81 | 74 | – | – | – | – | –

Row | SMILES | remaining activity at 100 µM (E. coli MurD) [%] | remaining activity at 100 µM (E. coli MurF) [%] | remaining activity at 100 µM (E. coli MurC; Table S1, PKIS screening) [%] | IC50 (E. coli MurD; printed in the RA cell of Table S1, read-out: IC50 MurD) [µM] | IC50 (E. coli MurC; printed in the RA cell of Table S1, read-out: IC50 MurC) [µM] | RA [%] at 100 µM MurD (E. coli MurD) [%] | RA [%] at 100 µM MurF (E. coli MurF) [%] | RA [%] at 100 µM MurC (E. coli MurC; Table S1, PKIS screening) [%]
20 | COc1cc(C=NNc2ncnc3c2cnn3Cc2ccccc2)ccc1O [GW643971X] | 78 | 25 | 56 | – | – | – | – | –
21 | COc1cc(/C=N/Nc2ncnc3c2cnn3C(C)C)ccc1O [GW644007X] | 91 | 78 | 87 | – | – | – | – | –
22 | Fc1cccc(COc2ccc(Nc3ncncc3C#Cc3ccccc3)cc2Cl)c1 [GW651576X] | 43 | 91 | 44 | 90 | 120 | – | – | –
23 | CCc1cccc(NC(=O)Nc2ccc(Oc3ccc4nc(NC(=O)OC)[nH]c4c3)cc2)c1 [GW673715X] | 83 | 68 | 79 | – | – | – | – | –
24 | CCS(=O)(=O)c1ccc(OC)c(Nc2ncc(-c3cccc(-c4ccccc4F)c3)o2)c1 [GW678313X] | 64 | 82 | 87 | – | – | – | – | –
25 | COc1ccc(-c2cc(-c3c[nH]nc3-c3ccccn3)ccn2)cc1 [GW679410X#4] | – | – | – | – | – | 98 | 82 | 61
26 | C#Cc1cccc(Nc2ncnc3ccc(OCCCCNCCS(C)(=O)=O)cc23)c1 [GW680191X] | 93 | 102 | 75 | – | – | – | – | –
27 | COC(=O)Nc1nc2ccc(S(=O)(=O)c3ccc(NC(=O)Nc4cc(C(F)(F)F)ccc4F)cc3)cc2[nH]1 [GW680908A] | 69 | 97 | 77 | – | – | – | – | –
28 | Fc1ccc(-c2cc(-c3c[nH]nc3-c3ccccn3)ccn2)cc1 [GW680975X] | 84 | 96 | 68 | – | – | – | – | –
29 | CC(C)c1ccc(-c2cc(-c3c[nH]nc3-c3ccccn3)ccn2)cc1 [GW682841X] | 85 | 88 | 78 | – | – | – | – | –
30 | O=C(Nc1ccc(Oc2ccc3nc(NC(=O)c4ccco4)[nH]c3c2)cc1)Nc1cc(C(F)(F)F)ccc1F [GW683134A] | 86 | 100 | 74 | – | – | – | – | –
31 | Fc1cccc(COc2ccc(Nc3ncnc4sc(-c5cccs5)cc34)cc2Cl)c1 [GW684626B] | 75 | 100 | 59 | – | – | – | – | –
32 | Nc1nc(-c2ccccn2)c(-c2ccc3ncccc3n2)s1 [GW693481X] | 88 | 94 | 99 | – | – | – | – | –
33 | COC(=O)Nc1nc2ccc(Oc3ccc(NC(=O)Nc4cccc(Br)c4)cc3)cc2[nH]1 [GW694234A] | 86 | 72 | 71 | – | – | – | – | –
34 | COC(=O)Nc1nc2ccc(Oc3ccc(NC(=O)Nc4ccccc4)cc3)cc2[nH]1 [GW694590A] | 99 | 75 | 62 | – | – | – | – | –
35 | c1ccc(-c2n[nH]cc2-c2ccnc(-c3ccc(OCCN4CCOCC4)cc3)c2)nc1 [GW695874X] | 80 | 91 | 79 | – | – | – | – | –
36 | CN1CCN(CCCNc2nc3ccc(Oc4ccc(NC(=O)Nc5cc(C(F)(F)F)ccc5F)cc4)cc3[nH]2)CC1 [GW700494A] | 73 | 95 | 99 | – | – | – | – | –
37 | c1cc(-c2cnn3nc(N4CCOCC4)ccc23)nc(NC2CC2)n1 [GW708336X] | 92 | 98 | 98 | – | – | – | – | –
